Test results as given in patent US4477458A, “Thiazolidine derivatives and their mucolytic compositions and methods” (Camillo Corvi S.p.A., priority 1981, dated 1984).
Structures can show the parent of a compound that is named as a salt.

Legend:
[1] = test system: mucus production of rabbit; test: Activity on mucus production of rabbit (method of R. Scuri and Coll.); type: in vivo; conditions: for Mucoproduction at hours 0 - 4: mean ± E.S.; for change in vivo at 400 mg/kg / change in vivo at 600 mg/kg: po
gastric mucin of the pig = test: "in vitro" viscosity of gastric mucin of the pig (Contraves Rehomat microviscosimeter); conditions: conc. 2 %; for Viscosity of gastric mucin: 0.1 ml; for Viscosity of gastric mucin, Var. %: vs Mucin + H2O
Method: The pharmacological activity was measured by studying the effect on the compound (CO/1177) on: (c) "in vitro" viscosity of gastric mucin of the pig by using, for the viscometer measures, a Contraves Rehomat microviscosimeter at 15 automatic scanning speeds.

[2] = Oryctolagus cuniculus, iv, 10 mg/kg i.v., 0-4 h vs -4-0 h, read-out: Mucoproduction Var. %
[3] = Oryctolagus cuniculus, 400 mg/kg os, 0-4 h vs -4-0 h, read-out: Mucoproduction Var. %
[4] = Oryctolagus cuniculus, 600 mg/kg os, 0-4 h vs -4-0 h, read-out: Mucoproduction Var. %

SMILES: O=C(O)c1ccccc1C(=O)N1CCSC1c1ccccc1 (stereo not drawn) [CO/1220, 2-[(2-phenyl)-1,3-thiazolidin-3-yl]-carbonyl-benzoic acid (Na salt)]
- Mucoproduction at hours 0 - 4 ([1]; 10 mg/kg i.v.): 31.300 ± 2.240 mg/h
- change in vivo at 10 mg/kg [1, 2]: 43.5%

SMILES: CCCC1SCCN1C(=O)c1ccccc1C(=O)O (stereo not drawn) [CO/1226, 2-[(2-propyl)-1,3-thiazolidin-3-yl]-carbonyl-benzoic acid (Na salt)]
- Mucoproduction at hours 0 - 4 ([1]; 10 mg/kg i.v.): 29.730 ± 4.510 mg/h
- change in vivo at 10 mg/kg [1, 2]: 26.9%

SMILES: O=C(O)c1cccnc1C(=O)N1CCSC1 [CO/1242, 2-(1,3-thiazolidin-3-yl)-carbonyl-3-pyridine-carboxylic acid (Na salt)]
- Mucoproduction at hours 0 - 4 ([1]; 10 mg/kg i.v.): 31.030 ± 2.840 mg/h
- change in vivo at 10 mg/kg [1, 2]: 39%

SMILES: CC(=O)N[C@@H](CS)C(=O)O [N--Acetylcysteine, reference compound]
- Viscosity of gastric mucin (gastric mucin of the pig; speed 17.4 g/min): 25.64 cps
- Viscosity of gastric mucin (gastric mucin of the pig; speed 25 g/min): 25.20 cps
- Viscosity of gastric mucin (gastric mucin of the pig; speed 33.6 g/min): 24.30 cps
- Viscosity of gastric mucin (gastric mucin of the pig; speed 44.3 g/min): 23.32 cps
- Viscosity of gastric mucin (gastric mucin of the pig; speed 56.1 g/min): 23.77 cps
- Viscosity of gastric mucin (gastric mucin of the pig; speed 77.9 g/min): 20.30 cps
- Viscosity of gastric mucin (gastric mucin of the pig; speed 113.2 g/min): 19.41 cps
- Viscosity of gastric mucin (gastric mucin of the pig; speed 152 g/min): 17.94 cps
- Viscosity of gastric mucin (gastric mucin of the pig; speed 200 g/min): 16.19 cps
- Viscosity of gastric mucin (gastric mucin of the pig; speed 266.8 g/min): 14.52 cps
- Viscosity of gastric mucin (gastric mucin of the pig; speed 352 g/min): 13.70 cps
- Viscosity of gastric mucin, Var. % (gastric mucin of the pig; speed 17.4 g/min): -11.9%
- Viscosity of gastric mucin, Var. % (gastric mucin of the pig; speed 25 g/min): -8.1%
- Viscosity of gastric mucin, Var. % (gastric mucin of the pig; speed 44.3 g/min): -12.4%
- Viscosity of gastric mucin, Var. % (gastric mucin of the pig; speed 56.1 g/min): -8.1%
- Viscosity of gastric mucin, Var. % (gastric mucin of the pig; speed 77.9 g/min): -11.1%
- Viscosity of gastric mucin, Var. % (gastric mucin of the pig; speed 113.2 g/min): -10.1%
- Viscosity of gastric mucin, Var. % (gastric mucin of the pig; speed 152 g/min): -8%
- Viscosity of gastric mucin, Var. % (gastric mucin of the pig; speed 200 g/min): -11.1%
- Viscosity of gastric mucin, Var. % (gastric mucin of the pig; speed 266.8 g/min): -12.1%
- Viscosity of gastric mucin, Var. % (gastric mucin of the pig; speed 352 g/min): -8.1%
- Mucoproduction at hours 0 - 4 ([1]; 5 mg/kg i.v.): 29.058 ± 0.946 mg/h
- Mucoproduction at hours 0 - 4 ([1]; 10 mg/kg i.v.): 30.988 ± 1.078 mg/h
- Mucoproduction at hours 0 - 4 ([1]; 400 mg/kg os): 22.713 ± 0.947 mg/h
- Mucoproduction at hours 0 - 4 ([1]; 600 mg/kg os): 32.512 ± 1.365 mg/h
- change in vivo at 5 mg/kg ([1]; Oryctolagus cuniculus, iv, 5 mg/kg i.v., 0-4 h vs -4-0 h, read-out: Mucoproduction Var. %): 29.2%
- change in vivo at 10 mg/kg [1, 2]: 49.8%
- change in vivo at 400 mg/kg [1, 3]: 4.7%
- change in vivo at 600 mg/kg [1, 4]: 39.4%

SMILES: N[C@@H](CSCC(=O)O)C(=O)O [S--Carboxymethylcysteine]
- Mucoproduction at hours 0 - 4 ([1]; 400 mg/kg os): 35.339 ± 1.376 mg/h
- Mucoproduction at hours 0 - 4 ([1]; 600 mg/kg os): 32.120 ± 1.630 mg/h
- change in vivo at 400 mg/kg [1, 3]: 31.2%
- change in vivo at 600 mg/kg [1, 4]: 34.2%
